# Publication PMC5430962, “Retro-inverso Urokinase Receptor Antagonists for the Treatment of Metastatic Sarcomas” (Scientific Reports, 2017)
# [ ]: non-standard residue; d: D form. Aib = CC(C)(N)C(=O)O
# Columns and labels:
# [1] = tested on: osteosarcoma Saos-2 cells; assay: Matrigel invasion kinetics, xCELLigence RTCA, Saos-2; type: cell-based, human; conditions: Saos-2, 10 nM, 10% FBS, 20 hr
# Protocol: This assay was performed using E-well plates and the xCELLigence RTCA technology as described. Bottom wells were coated with 20 µg/well matrigel diluted in serum free medium. Matrigel was allowed to polymerize for 1 hr at 37 °C prior to seeding cells (1 × 10^4 cells/well) suspended in growth medium plus/minus RI peptides. Cells that cross matrigel adhere to the bottom of plates causing impedance changes that are proportional to the number of invading cells, and are expressed as a cell index value. Matrigel invasion was monitored for 20 hr. The experiments were performed three times in quadruplicate.
# [2] = tested on: cell proliferation; assay: Cell proliferation, xCELLigence RTCA; type: cell-based; conditions: 10 µM in growth medium, 85 hr, replaced every 24 hr
# Protocol: Cell proliferation was assessed using the xCELLigence RTCA technology as described. Cells (2 × 10^3/well) were seeded in E-well plates in growth medium and left to growth for 85 hr in the presence or the absence of 10 µM RI-3. For MTS assay, cells seeded on plates in growth medium plus/minus 10 µM RI-3, were allowed to proliferate at 37 °C in 5% CO2 and the absorbance of adherent cells stained with tetrazolium/formazan was assessed with a microplate reader. In both cases, medium with or without RI-3 was replaced every 24 hr. Data are the means ± SD of three independent experiments, performed in triplicate.
# [3] = target: T1, FPR1 (Homo sapiens, UniProt P21462); assay: Ligand binding assay: FITC-fMLF binding to RBL-2H3/ETFR cells; conditions: 100 nM unlabeled peptide 60 min at 4 °C, then 10 nM FITC-fMLF 60 min at 4 °C; fluorescence plate reader
# T1 construct: expressed in transfected cells; host or cells: rat basophilic leukaemia RBL-2H3/ETFR cells (gift of F. Blasi)
# T1 sequence (P21462 1-350): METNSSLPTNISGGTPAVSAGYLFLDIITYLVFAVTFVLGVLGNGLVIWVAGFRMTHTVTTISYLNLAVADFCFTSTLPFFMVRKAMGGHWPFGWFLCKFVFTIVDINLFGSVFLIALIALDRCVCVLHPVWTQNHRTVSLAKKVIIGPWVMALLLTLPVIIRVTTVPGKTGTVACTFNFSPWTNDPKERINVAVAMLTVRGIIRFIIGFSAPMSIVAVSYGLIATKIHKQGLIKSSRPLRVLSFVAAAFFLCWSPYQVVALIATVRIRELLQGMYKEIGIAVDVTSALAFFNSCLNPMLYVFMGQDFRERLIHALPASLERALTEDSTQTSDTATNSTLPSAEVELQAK
# Protocol: RBL-2H3 cells, RBL-2H3/ETFR cells stably expressing FPR1 (1.5 × 10^6 cells/sample) were pre-incubated with diluents or the indicated unlabeled peptides for 60 min at 4 °C, extensively rinsed with phosphate buffer saline (PBS), exposed to 10 nM FITC-fMLF (Molecular Probes) in PBS for additional 60 min at 4 °C and again rinsed with PBS. Cell-associated fluorescence was quantitated with the fluorescence plate reader Victor 3 (Perkin Elmer) using 485 nm excitation and 535 nm emission filters. The experiments were performed three times in triplicate.
# [4] = tested on: Sarc cells crossing HUVEC monolayer; assay: Trans-endothelial migration of Sarc cells, xCELLigence RTCA; type: cell-based, human; conditions: 10 nM, EBM-10% FBS, slopes in a 25–35 hr time frame
# Protocol: Trans-endothelial migration assays were performed using the xCELLigence RTCA technology as described. Briefly, HUVECs (1 × 10^4 cells/well) suspended in growth medium, were seeded in E-plates and allowed to grow for ~25 hr, until they form a confluent monolayer, prior to seeding Sarc cells (1 × 10^4 cells/well) in growth medium plus/minus 10 nM RI-3. When HUVECs are challenged with crossing cells, there is a drop in electrical resistance that is monitored in real-time as cell index changes due to the rupture of the endothelial monolayer. The experiment was performed twice in quadruplicate.
substance,measurement,setting,value
Ac-[dY][dR][Aib][dR]-NH2 (SMILES CC(=O)N[C@H](Cc1ccc(O)cc1)C(=O)N[C@H](CCCNC(=N)N)C(=O)NC(C)(C)C(=O)N[C@H](CCCNC(=N)N)C(N)=O) [RI-3],reduction of matrigel invasion (slope of cell index),[1],24%
same,effect on cell proliferation and doubling times (xCELLigence),[2],no difference was apparent
same,effect on binding of FITC-fMLF to RBL-2H3/ETFR cells,[3],prevented binding of FITC-fMLF to RBL-2H3/ETFR cells to a similar extent as compared to fMLF as well as RERF
same,reduction of the capability of Sarc cells to disrupt endothelial monolayers,[4],24%
